Assay results reported in PubChem BioAssay (NCI).
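Compound exposure: 48 hours, 5 concentrations, 96-well plates. The concentration for full growth arrest is given as TGI.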

How the values were obtained:
Assay in all cases: inhibition of tumour cell growth, NCI panel, 48 h
EKVX NSCLC = system: EKVX NSCLC
CCRF-CEM leukemia = system: CCRF-CEM leukemia
SK-MEL-28 melanoma = system: SK-MEL-28 melanoma
SNB-19 CNS = system: SNB-19 CNS
HOP-18 NSCLC = system: HOP-18 NSCLC
LOX IMVI melanoma = system: LOX IMVI melanoma
DLD-1 colon = system: DLD-1 colon
SK-MEL-5 melanoma = system: SK-MEL-5 melanoma
MALME-3M melanoma = system: MALME-3M melanoma
CAKI-1 renal = system: CAKI-1 renal
SNB-75 CNS = system: SNB-75 CNS
NCI-H226 lung = system: NCI-H226 lung
OVCAR-3 ovarian = system: OVCAR-3 ovarian
DMS 273 small cell lung = system: DMS 273 small cell lung
HL-60(TB) leukemia = system: HL-60(TB) leukemia
KM20L2 colon = system: KM20L2 colon
RPMI-8226 leukemia = system: RPMI-8226 leukemia
HCT-116 colon = system: HCT-116 colon
MOLT-4 leukemia = system: MOLT-4 leukemia
SNB-78 CNS = system: SNB-78 CNS
DMS 114 small cell lung = system: DMS 114 small cell lung
KM12 colon = system: KM12 colon
SN12C renal = system: SN12C renal
COLO 205 colon = system: COLO 205 colon
IGROV1 ovarian = system: IGROV1 ovarian
NCI-H522 lung = system: NCI-H522 lung
K-562 leukemia = system: K-562 leukemia
ACHN renal = system: ACHN renal
M19-MEL melanoma = system: M19-MEL melanoma
SF-268 CNS = system: SF-268 CNS
HCT-15 colon = system: HCT-15 colon
OVCAR-8 ovarian = system: OVCAR-8 ovarian
U251 CNS = system: U251 CNS
M14 melanoma = system: M14 melanoma
HOP-62 NSCLC = system: HOP-62 NSCLC
LXFL 529 NSCLC = system: LXFL 529 NSCLC
HT29 colon = system: HT29 colon
SK-MEL-2 melanoma = system: SK-MEL-2 melanoma
UACC-62 melanoma = system: UACC-62 melanoma
OVCAR-5 ovarian = system: OVCAR-5 ovarian
SK-OV-3 ovarian = system: SK-OV-3 ovarian
A549 NSCLC = system: A549 NSCLC
HOP-92 NSCLC = system: HOP-92 NSCLC
SW-620 colon = system: SW-620 colon
UACC-257 melanoma = system: UACC-257 melanoma
OVCAR-4 ovarian = system: OVCAR-4 ovarian
A498 renal = system: A498 renal
786-0 renal = system: 786-0 renal
SF-295 CNS = system: SF-295 CNS
RXF 393 renal = system: RXF 393 renal
NCI-H460 lung = system: NCI-H460 lung
SR leukemia = system: SR leukemia
NCI-H23 lung = system: NCI-H23 lung
RXF-631 renal = system: RXF-631 renal
TK-10 renal = system: TK-10 renal
HCC-2998 colon = system: HCC-2998 colon
SF-539 CNS = system: SF-539 CNS
UO-31 renal = system: UO-31 renal

Compound Cc1c(Cl)ccc2c1NC(=O)C2(O)CC(=O)c1ccc(Cl)cc1 (stereo not drawn) has a TGI (EKVX NSCLC) greater than 100 µM, a TGI (CCRF-CEM leukemia) of 53.5 µM and a TGI (SK-MEL-28 melanoma) greater than 100 µM. For the same compound, the TGI (SNB-19 CNS) was greater than 100 µM, the TGI (HOP-18 NSCLC) was greater than 100 µM and the TGI (LOX IMVI melanoma) was greater than 46.3 µM. For the same compound, the TGI (DLD-1 colon) was greater than 100 µM, the TGI (SK-MEL-5 melanoma) was greater than 100 µM and the TGI (MALME-3M melanoma) was greater than 54.4 µM. The TGI (CAKI-1 renal) was greater than 100 µM, the TGI (SNB-75 CNS) was greater than 100 µM and the TGI (NCI-H226 lung) was greater than 100 µM. It also gave a TGI (OVCAR-3 ovarian) greater than 100 µM, a TGI (DMS 273 small cell lung) greater than 100 µM and a TGI (HL-60(TB) leukemia) greater than 80.6 µM. It also gave a TGI (KM20L2 colon) greater than 100 µM, a TGI (RPMI-8226 leukemia) greater than 84.3 µM and a TGI (HCT-116 colon) greater than 54 µM. The TGI (MOLT-4 leukemia) was 63.7 µM, the TGI (SNB-78 CNS) was greater than 100 µM and the TGI (DMS 114 small cell lung) was 37.1 µM. For the same compound, the TGI (KM12 colon) was greater than 100 µM, the TGI (SN12C renal) was greater than 54.9 µM and the TGI (COLO 205 colon) was greater than 64.9 µM. It also gave a TGI (IGROV1 ovarian) greater than 100 µM, a TGI (NCI-H522 lung) greater than 100 µM and a TGI (K-562 leukemia) greater than 64.8 µM. For the same compound, the TGI (ACHN renal) was greater than 100 µM, the TGI (M19-MEL melanoma) was 26.9 µM and the TGI (SF-268 CNS) was greater than 100 µM. It also gave a TGI (HCT-15 colon) greater than 60.1 µM, a TGI (OVCAR-8 ovarian) greater than 100 µM and a TGI (U251 CNS) greater than 100 µM. For the same compound, the TGI (M14 melanoma) was greater than 100 µM, the TGI (HOP-62 NSCLC) was greater than 100 µM and the TGI (LXFL 529 NSCLC) was greater than 53.3 µM. The TGI (HT29 colon) was greater than 66.1 µM, the TGI (SK-MEL-2 melanoma) was greater than 64.2 µM and the TGI (UACC-62 melanoma) was greater than 71.5 µM. For the same compound, the TGI (OVCAR-5 ovarian) was greater than 100 µM, the TGI (SK-OV-3 ovarian) was greater than 100 µM and the TGI (A549 NSCLC) was greater than 100 µM. For the same compound, the TGI (HOP-92 NSCLC) was greater than 100 µM, the TGI (SW-620 colon) was greater than 53.1 µM and the TGI (UACC-257 melanoma) was greater than 55.9 µM. For the same compound, the TGI (OVCAR-4 ovarian) was greater than 100 µM, the TGI (A498 renal) was greater than 64.1 µM and the TGI (786-0 renal) was greater than 100 µM. For the same compound, the TGI (SF-295 CNS) was greater than 58.3 µM, the TGI (RXF 393 renal) was greater than 88.5 µM and the TGI (NCI-H460 lung) was greater than 63.3 µM. The TGI (SR leukemia) was greater than 57.1 µM, the TGI (NCI-H23 lung) was greater than 100 µM and the TGI (RXF-631 renal) was greater than 100 µM. It also gave a TGI (TK-10 renal) greater than 100 µM, a TGI (HCC-2998 colon) greater than 56.2 µM and a TGI (SF-539 CNS) greater than 100 µM. The TGI (UO-31 renal) was greater than 100 µM.
